Test results taken from PubChem BioAssay (NCI).
Where “and” joins values, the source holds several entries; their conditions need not be identical. Equal entries are not always repeated.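 Where inhibition never reached the appropriate level, the endpoint shown equals the highest concentration tested. Otherwise, values were interpolated linearly from a five-concentration, 48-hour dose response in 96-well plates. GI50: concentration for 50% inhibition of growth. TGI is the concentration that stops growth completely.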

What was measured:
Experiment in all cases: growth of human tumour cells (NCI), 48 h
[1] = tested on: TK-10 renal
[2] = tested on: NCI-H460 lung
[3] = tested on: SF-539 CNS
[4] = tested on: UACC-62 melanoma
[5] = tested on: UACC-257 melanoma
[6] = tested on: OVCAR-4 ovarian
[7] = tested on: SF-268 CNS
[8] = tested on: SR leukemia
[9] = tested on: IGROV1 ovarian
[10] = tested on: SW-620 colon

Cc1ccc(-n2nc(C(C)(C)C)cc2NC(=O)NCc2cc(F)ccc2Oc2ccc3c(cnn3CCO)c2)cc1
GI50 [1]: > 10 µM and 10.8 µM
TGI [1]: > 91.9 µM
GI50 [2]: > 10 µM and 4.85 µM
TGI [2]: > 59.7 µM
GI50 [3]: > 10 µM and 6.83 µM
TGI [3]: > 93.1 µM
GI50 [4]: 0.667 µM
TGI [4]: > 39.8 µM
GI50 [5]: 1.19 µM and 2.32 µM
TGI [5]: > 10 µM and 10.4 µM
GI50 [6]: > 10 µM and 4.1 µM
TGI [6]: > 100 µM
GI50 [7]: > 10 µM and 4.61 µM
TGI [7]: > 100 µM
GI50 [8]: > 10 µM and 1.12 µM
TGI [8]: > 10 µM and 4.33 µM
GI50 [9]: 2.59 µM and 4.69 µM
TGI [9]: > 100 µM
GI50 [10]: > 10 µM and 6.34 µM
TGI [10]: > 100 µM

CCCCCCCCCCCCCCCCCCOCC(COCCOCC[N+]1(CCCCCC(=O)[O-])CCCC1)Oc1ncccn1 (centres undefined)
TGI [1]: 20.3 µM
TGI [2]: 16.8 µM
TGI [3]: 15.8 µM
TGI [4]: 14.2 µM
TGI [5]: 22.7 µM
TGI [6]: 4.22 µM
TGI [7]: 16.5 µM
TGI [8]: 37.1 µM
TGI [9]: 3.83 µM
TGI [10]: 19.2 µM

CCn1c(-c2nonc2N)nc2ccncc21
GI50 [1]: > 25 µM
TGI [1]: > 25 µM
GI50 [2]: > 25 µM
TGI [2]: > 25 µM
GI50 [3]: > 25 µM
TGI [3]: > 25 µM
GI50 [4]: > 25 µM
TGI [4]: > 25 µM
GI50 [5]: > 25 µM
TGI [5]: > 25 µM
GI50 [6]: > 25 µM
TGI [6]: > 25 µM
GI50 [7]: > 25 µM
TGI [7]: > 25 µM
GI50 [8]: > 25 µM
TGI [8]: > 25 µM
GI50 [9]: > 25 µM
TGI [9]: > 25 µM
GI50 [10]: > 25 µM
TGI [10]: > 25 µM

Nc1ccccc1C(=O)C(Br)C(Br)c1ccc2c(c1)OCO2 (centres undefined)
TGI [1]: 72.7 µM
TGI [2]: 39.2 µM
TGI [3]: 33.8 µM
TGI [4]: 35.2 µM
TGI [5]: 44.9 µM
TGI [6]: 59.8 µM
TGI [7]: 91.5 µM
TGI [8]: > 100 µM
TGI [9]: > 100 µM
TGI [10]: > 100 µM

Cc1ccc(NC(=O)/C(Cc2cc(=O)oc3cc(O)ccc23)=N\NC(=O)C[N+](C)(C)C)cc1C
TGI [1]: > 100 µM
TGI [2]: > 100 µM
TGI [3]: > 100 µM
TGI [4]: > 100 µM
TGI [5]: > 100 µM
TGI [6]: > 100 µM
TGI [7]: > 100 µM
TGI [8]: > 100 µM
TGI [9]: > 100 µM
TGI [10]: > 100 µM

COc1ccc(-c2c(C3=NCCCN3)nnn2-c2ccc([N+](=O)[O-])cc2)cc1
TGI [1]: > 100 µM
TGI [2]: > 100 µM
TGI [3]: > 100 µM
TGI [4]: > 100 µM
TGI [5]: > 100 µM
TGI [6]: > 100 µM
TGI [7]: > 100 µM
TGI [8]: > 100 µM
TGI [9]: > 100 µM
TGI [10]: > 100 µM

Cc1cccc(C)c1N1C(=O)C(=O)C(c2nc3ccccc3s2)C(=Nc2cccc3c(=O)[nH][nH]c(=O)c23)C1=O (centres undefined)
TGI [1]: > 100 µM
TGI [2]: > 100 µM
TGI [3]: > 100 µM
TGI [4]: > 100 µM
TGI [5]: > 100 µM
TGI [6]: > 100 µM
TGI [7]: > 100 µM
TGI [8]: > 100 µM
TGI [9]: > 100 µM
TGI [10]: > 100 µM

CC(C)[O-].CC(C)[O-].CN(CCN(C)Cc1cc(F)cc(F)c1[O-])Cc1cc(F)cc(F)c1[O-].[Ti+4]
GI50 [1]: 1.42 µM
TGI [1]: 7.26 µM
GI50 [2]: 0.575 µM
TGI [2]: 2.83 µM
GI50 [3]: 1.01 µM
TGI [3]: 4.8 µM
GI50 [4]: 1.26 µM
TGI [4]: 3.09 µM
GI50 [5]: 1.15 µM
TGI [5]: 3.9 µM
GI50 [6]: 0.717 µM
TGI [6]: 7.18 µM
GI50 [7]: 1.04 µM
TGI [7]: 3.22 µM
GI50 [8]: 0.512 µM
GI50 [9]: 0.688 µM
TGI [9]: 2.47 µM
GI50 [10]: 0.828 µM
TGI [10]: 3.3 µM

O=c1[nH]c2cc([N+](=O)[O-])ccc2nc1/C(=N\Nc1ccccc1)C(O)c1ccc2c(c1)OCO2 (centres undefined)
TGI [1]: > 100 µM
TGI [2]: > 100 µM
TGI [3]: > 100 µM
TGI [4]: > 100 µM
TGI [5]: > 100 µM
TGI [6]: > 100 µM
TGI [7]: > 100 µM
TGI [8]: > 100 µM
TGI [9]: > 100 µM
TGI [10]: > 100 µM

OCc1ccc(N2CCOCC2)cc1Cl
GI50 [1]: 2.94 µM
TGI [1]: 11.4 µM
GI50 [2]: 30.9 µM
TGI [2]: > 100 µM
GI50 [3]: > 100 µM
TGI [3]: > 100 µM
GI50 [4]: 14.4 µM
TGI [4]: > 91.2 µM
GI50 [5]: 7.2 µM
TGI [5]: 24.1 µM
GI50 [6]: 55.6 µM
TGI [6]: > 100 µM
GI50 [7]: > 100 µM
TGI [7]: > 100 µM
GI50 [8]: > 100 µM
TGI [8]: > 100 µM
GI50 [9]: 6.73 µM
TGI [9]: 32.6 µM
GI50 [10]: > 100 µM
TGI [10]: > 100 µM
